Source: patent EP4111863A1, “PHOSPHORUS USE EFFICIENCY ENHANCERS AS PLANT GROWTH PROMOTORS” (EuroChem Antwerpen, priority 2021, dated 2023)

Tested on: SPX1
Test: Chemical activity assessment: SPX1 phosphate starvation biomarker, pSPX1::GUS reporter line, GUS stained area
Format: in vivo, Arabidopsis thaliana
Settings: Table 3; 50 µM compound, low phosphate modMS liquid medium, 7 days after germination; low phosphate control average of the same plate
Procedure: All Arabidopsis plant experiments were performed using the Arabidopsis thaliana Columbia-0 background. The Arabidopsis pSPX1::GUS line is described in the […] 2008, 54: 965-975. For rice, the cultivar Nipponbare was used. For maize, the cultivars DKC 2931 and B104 were used for regular pot experiments and sand-based pot experiments, respectively. For soybean, the cultivar Primus was used. […] The medium was solidified due to the addition of 0,6% Gelrite, unless stated otherwise. In case of vertical plates (root length and root hair measurements), the medium was supplied with 0.5% of sucrose and 1 µM (low phosphate, 1 µM KH2PO4, 9.9 mM KCI), 10 µM (low phosphate 10 µM KH2PO4, 9.9 mM KCI) or 1.25 mM KH2PO4 (high phosphate). Arabidopsis seeds were stratified for 2 days at 4 °C before germination. Seedlings were germinated in climate-controlled growth chambers at 22 °C under continuous light (100 µmol m^-2 s^-1). Husked rice seeds were germinated on wetted Whatman paper for 2 days at 37 °C and then transferred to Sterivent boxes or square Petri dishes with solid medium. Maize and soybean seeds were wetted 24 hours at room temperature prior to sowing in pots.
For the chemical activity assessment 3 to 8 seeds per well of Arabidopsis pSPX1::GUS line were sown in 96-well plates containing 150 µl of low phosphate modMS liquid medium containing 1% of sucrose. Compounds were added in 50 µM concentration, starting from a 5 mM stock of compounds solved in DMSO. Different chemical substances were separately added to different wells. Per plate, 16 control wells were used, 8 containing only the low phosphate medium and 1% DMSO, and 8 containing high phosphate medium and 1% DMSO. 7 days after germination, plates were scanned using a flatbed scanner (EPSON Expression 11000XL) and analyzed for leaf size. After scanning, the growth medium was replaced by GUS staining solution (see Plant Mol. Biol. Rep. 1994, 12: 37-42 for details) and incubated for 1.5 hours at 37 °C. The plates were scanned a second time and analyzed for GUS signal area. Measurements of both leaf area and GUS signal area were conducted by filtering out and measure the green and blue signal, respectively using ImageJ software. If the green leaf area was 50% or less than the control, samples were omitted. Additionally, all results were visually screened for leaf size and GUS signal.

Row | SMILES | GUS (SPX1) stained area normalized to the number of seeds (pixels)
1 | Cc1csc(C2CN(Cc3nc(-c4ccccc4)no3)CCO2)n1 (stereo not drawn) | 0
2 | Cc1ccc(C(CN2CCOCC2)NC(=O)c2cc(-c3ccccc3)[nH]n2)cc1 (stereo not drawn) | 0
3 | CC1CN(CC(=O)Nc2ccccc2Cc2ccccc2)CC(C)O1 (stereo not drawn) | 0
4 | CS(=O)(=O)CC1(CN2CCOC(c3ccc(F)cc3)C2)CC1 (stereo not drawn) | 0
5 | O=C(O)c1cc(Cl)nc(N2CCOCC2)c1 | 0
6 | CCC(=O)c1ccc(OC(=O)N2CCOCC2)cc1 | 0
7 | Cc1csc(C2CN(Cc3csc(C(C)(C)C)n3)CCO2)n1 (stereo not drawn) | 1
8 | CCn1c(Sc2nnnn2-c2ccccc2)nc2cc(S(=O)(=O)N3CCOCC3)ccc21 | 14
9 | CC1CN(C(=O)c2cc(Cl)c(Cl)n2C)CCO1 (stereo not drawn) | 14
10 | CC(C)C(NC(=O)C12CC3CC(CC(C3)C1)C2)C(=O)N1CCOCC1 (stereo not drawn) | 14
11 | O=C(c1cc(-c2ccccc2)nc2c1cnn2Cc1cccc(F)c1)N1CCOCC1 | 14
12 | Cc1ccc(C2CN(Cc3cc(-c4ccco4)on3)CCO2)c(C)c1 (stereo not drawn) | 15
13 | Cn1cc(C2CN(Cc3ccc(CSC(F)F)o3)CCO2)cn1 (stereo not drawn) | 15
14 | Cc1cc(C)n(CC2CN(CC(=O)N(C)c3nccs3)CCO2)n1 (stereo not drawn) | 15
15 | O=C(CSc1ncnc2sccc12)c1ccc(CC(=O)N2CCOCC2)s1 | 15
16 | O=C(Cn1c(NCCO)nc2ccccc21)N1CCOCC1 | 16
17 | CCc1nnc(NC(=O)N2CCOCC2CC(C)C)s1 (stereo not drawn) | 16
18 | O=C(c1ccc(-c2cc(Cl)ccc2Cl)o1)N1CCOCC1 | 16
19 | CC1(C)CN(Cc2ccc(-n3ccnc3)cc2)CCO1 | 16
20 | CC1COCCN1C(=O)CCc1nc(-c2cccs2)no1 (stereo not drawn) | 17
21 | Cn1c(Cl)cnc1CN1CCOC(c2ccc(Cl)cc2)C1 (stereo not drawn) | 17
22 | Cc1cc(C)c(C)c(OC(=O)N2CCOCC2)c1 | 17
23 | NC(=O)C1CN(c2ncc(Br)cn2)CCO1 (stereo not drawn) | 17
24 | Cc1cc(I)ccc1NC(=O)CN1CCOC(C)C1 (stereo not drawn) | 17
25 | CC(=O)Nc1ccc(Sc2cc(C(=O)N3CCOCC3)c3ccccc3n2)cc1 | 18

Row | SMILES | GUS (SPX1) stained area normalized to the number of seeds (pixels)
26 | O=S(=O)(N1CCOCC1)N1CCN(Cc2noc(-c3ccc(F)cc3)n2)CC1 | 19
27 | Cc1cccn2c(=O)cc(CN3CCOC(c4ccc(F)cc4)C3)nc12 (stereo not drawn) | 19
28 | CC1CN(C(=O)c2cnn(C)c2C(F)(F)F)CC(C)O1 (stereo not drawn) | 19
29 | COc1cccc(-c2nnn(-c3nc(CN4CCOCC4)nc4sc5c(c34)CCCC5)n2)c1 | 20
30 | CCCCn1c(N)c(C(=O)NCCN2CCOCC2)c2nc3ccccc3nc21 | 20
31 | O=C(COc1ccc(Cl)cc1)Nc1ccccc1C(=O)N1CCOCC1 | 20
32 | CC(=O)Nc1nc(CN2CC(C)OC(c3ccsc3)C2)cs1 (stereo not drawn) | 20
33 | Cc1nnc(NC(=O)N2CC(C)OC(c3ccsc3)C2)s1 (stereo not drawn) | 20
34 | Cc1ccc2cccc(OC(=O)N3CCOCC3)c2n1 | 21
35 | Brc1cc(CN2CCOC(Cn3cccn3)C2)cs1 (stereo not drawn) | 21
36 | CC(C)c1nc(C2COCCN2c2ccnc(-c3ccccc3)n2)no1 (stereo not drawn) | 21
37 | CC1CN(CC(=O)Nc2ccccc2C(=O)NC2CCCC2)CC(C)O1 (stereo not drawn) | 21
38 | CCC1COCCN1C(=O)Nc1nnc(C(F)(F)F)s1 (stereo not drawn) | 21
39 | O=C(Cc1c[nH]c2cc(Cl)ccc12)N1CCOCC1c1ncon1 (stereo not drawn) | 22
40 | Fc1ccc(-c2nnc(SCc3ccc4ccccc4n3)n2CCN2CCOCC2)cc1 | 22
41 | CC1CN(C(=O)Nc2cc(C(C)C)on2)CC(c2ccsc2)O1 (stereo not drawn) | 23
42 | CCC1CN(C(=O)CCc2nc(-c3cccs3)no2)CCO1 (stereo not drawn) | 23
43 | c1ccc(OCCNCCN2CCOCC2)cc1 | 23
44 | O=C(Nc1ccc(F)cn1)N1CCOC(c2nccs2)C1 (stereo not drawn) | 24
45 | COC(=O)c1ccc(N2CCOC(c3ccc(C)o3)C2)nc1C (stereo not drawn) | 24
46 | Cc1cccc(N2CCOC3(CCCC3)C2)n1 | 25
47 | CC(Nc1cnn(CCN2CCOCC2)c1)c1nccs1 (stereo not drawn) | 25
48 | Cc1ccc(C2COCCN2C(=O)Nc2nnc(C(F)F)s2)o1 (stereo not drawn) | 26
49 | Cc1nc2c(cc(Oc3ccc(S(=O)(=O)N4CCOCC4)cn3)c3ccsc32)s1 | 26
50 | Cc1cccc(-n2c(SCC3COc4ccccc4O3)nnc2N2CCOCC2)c1 (stereo not drawn) | 26

Row | SMILES | GUS (SPX1) stained area normalized to the number of seeds (pixels)
51 | Fc1cc(C2CNCCO2)c(Cl)cc1Cl (stereo not drawn) | 27
52 | Cc1nc2c(c(C)nn2C)c(C)c1CCC(=O)N1CC(C)OC(C)C1 (stereo not drawn) | 27
53 | CCc1ccnc(C(=O)Nc2cnccc2N2CCOCC2)c1 | 27
54 | O=C(NC1CCSc2ccc(Cl)cc21)c1ccc(N2CCOCC2)c([N+](=O)[O-])c1 (stereo not drawn) | 27
55 | CC1(C)C(NC(=O)Nc2cc(Cl)ccc2N2CCOCC2)C2CCOC21 (stereo not drawn) | 28
56 | O=C(CCc1ccccc1)Nc1c(C(=O)N2CCOCC2)oc2ccccc12 | 28
57 | O=C1c2cccc3cccc(c23)C(=O)N1CCN1CCOCC1 | 29
58 | O=C(C1CN(C(=O)C(c2ccccc2)c2ccccc2)c2ccccc2O1)N1CCOCC1 (stereo not drawn) | 30
59 | O=S(=O)(c1ccc(Sc2nnc(-c3ccccc3)c3ccccc23)nc1)N1CCOCC1 | 31
60 | CC1(C)CN(C(=O)c2csc(-c3ccsc3)n2)CCO1 | 31
61 | COc1ccc(-c2nnc(SCC(=O)N3CCOCC3)o2)cc1OC | 32
62 | Cc1nc(C(C)(C)NCC(=O)N2CC(C)OC(C)C2)sc1C (stereo not drawn) | 34
63 | O=C(C1CN(C(=O)CSc2nc3ccccc3o2)c2ccccc2O1)N1CCOCC1 (stereo not drawn) | 34
64 | OC(COc1cccc2ccccc12)CN1CCOC2CCCCC21 (stereo not drawn) | 34
65 | Cc1nc(Cl)cc(N2CCOCC2c2c(C)nn(C)c2C)n1 (stereo not drawn) | 35
66 | C1CCC(Sc2nnc(N3CCOCC3)s2)C1 | 35
67 | N#Cc1c(F)cccc1Sc1nnc(N2CCOCC2)s1 | 35
68 | Cc1nn(C)c(C)c1C1CCCN1CC(O)CN1CCOCC1 (stereo not drawn) | 37
69 | CCC(CC)C(CNC(=O)Nc1ccccc1F)N1CCOCC1 (stereo not drawn) | 37
70 | FC(F)(F)Cn1ccnc1CN1CCOC2(CCCC2)C1 | 38
71 | Cc1ccc(C(C)C)c(OCCNCCN2CCOCC2)c1 | 40
72 | O=C1CCCCCN1CCCNC(=O)N1CCOC2(CCCCCC2)C1 | 40
73 | COc1ccc(OC)c2c1CN(c1nc(CN3CCOCC3)nc3sc(C)c(C)c13)CC2O (stereo not drawn) | 42
74 | CSc1nnc(CN2CC(c3ccccc3)OCC2(C)C)s1 (stereo not drawn) | 43
75 | c1ccc2nc(N3CCOCC3)cnc2c1 | 43
